Experimental data: patent US12498382B2, “Biomarkers for vitiligo” (INCYTE CORPORATION, priority 2019, dated 2025)

Tested on: HaCaT cells
Test: Concentrations of inflammatory mediators produced by HaCaT cells stimulated with TNFα and IFNγ in presence/absence of JAK inhibitors (ProCarta)
Format: cell-based, human
Procedure: After 48 hours, cell culture media was removed from 24 well plates and replaced with 250 uL of media containing serial diluted drug, then incubated for 15 minutes at 37° C./5% CO2. […] The final concentration of Recombinant Human Interferon gamma and Recombinant Human Tumor Necrosis Factor alpha was 25 ng/mL of each cytokine. Cytokine stimulation added to wells containing drug brought the final concentrations for each drug treatment to 25 nM, 50 nM, 100 nM, and 200 nM. Treated plates were mixed by gentle agitation for 30 seconds then incubated for 24 hours at 37° C./5% CO2. At the end of the 24 hour incubation media was immediately removed from each plate.
Media was incubated with antibody conjugated beads designed to bind to the epitopes of specific target proteins and identify the bound protein through the bead's distinctive spectral pattern. Biotinylated detection antibodies, designed to bind to different epitopes of the same target proteins, and Streptavidin-PE are added to assay plates to quantify the amount of the target proteins. Assay plates were read on the Luminex 200 and data were expressed as Net Median Fluorescence Intensity. […] The concentration of each protein was extrapolated from the antigen standard curve and concentrations were expressed as pg/mL (Table 15).

[1] = TNFα+IFNγ 25 ng/mL each, drug conc. 3rd of 4 rows (cell not shown; prob. 100 nM)
[2] = TNFα+IFNγ 25 ng/mL each, drug conc. 4th of 4 rows (cell not shown; prob. 200 nM)
[3] = drug present, concentration not given

For `Cc1n[nH]c(C)c1-c1cnn(C2(CC#N)CN(c3cc(F)c(C(=O)N[C@@H](C)C(F)(F)F)cc3F)C2)c1` [Cpd C, 4-[3-(Cyanomethyl)-3-(3′,5′-dimethyl-1H,1′H-4,4′-bipyrazol-1-yl)azetidin-1-yl]-2,5-difluoro-N-[(1S)-2,2,2-trifluoro-1-methylethyl]benzamide], the IL21 concentration [1] was 2.6 ± 0.28 pg/mL, the IL22 concentration [1] was 7.31 ± 1.07 pg/mL and the IL23 concentration [1] was 6.7 ± 0.73 pg/mL. For the same compound, the IL27 concentration [1] was 5.7 ± 1.04 pg/mL, the IL31 concentration [1] was 2.95 ± 0.38 pg/mL and the IP-10/CXCL10 concentration [1] was 3860.41 ± 323.05 pg/mL. It also gave an LIF concentration [1] of 73.12 ± 3.62 pg/mL, an MCP1 concentration [1] of 26334.64 ± 11134.64 pg/mL and an MIP1 alpha concentration [1] of 96.4 ± 4.18 pg/mL. The MIP1 beta concentration [1] was 324.42 ± 8.52 pg/mL, the PDGF-BB concentration [1] was 5.57 ± 0.23 pg/mL and the PIGF-1 concentration [1] was 58.69 ± 3.37 pg/mL. The RANTES concentration [1] was 207.79 ± 17.38 pg/mL, the SCF concentration [1] was 4.59 ± 0.25 pg/mL and the SDF-1 alpha concentration [1] was 3521.98 ± 154.06 pg/mL. The TNF alpha concentration [1] was 10632.61 ± 795.65 pg/mL, the TNF beta concentration [1] was 4.6 ± 0.46 pg/mL and the VEGF-A concentration [1] was 1335.99 ± 63.65 pg/mL. For the same compound, the VEGF-D concentration [1] was 9.25 ± 0.7 pg/mL, the IFN gamma concentration [2] was 25179.01 ± 3591.71 pg/mL and the IL1RA concentration [2] was 5756.59 ± 328.24 pg/mL. It also gave an IL1 alpha concentration [2] of 6.45 ± 0.38 pg/mL, an IL1 beta concentration [2] of 8.71 ± 0.5 pg/mL and an IL2 concentration [2] of 30.68 ± 1.62 pg/mL. For the same compound, the IL4 concentration [2] was 7.07 ± 0.88 pg/mL, the IL5 concentration [2] was 27.1 ± 1.76 pg/mL and the IL7 concentration [2] was 1.91 ± 0.11 pg/mL. It also gave an IL8 concentration [2] of 2874.26 ± 169.59 pg/mL, an IL9 concentration [2] of 3.66 ± 0.04 pg/mL and an IL10 concentration [2] of 0.84 ± 0.08 pg/mL. The IL12p70 concentration [2] was 1.79 ± 0.23 pg/mL, the IL13 concentration [2] was 2.12 ± 0.3 pg/mL and the IL15 concentration [2] was 2.32 ± 0.44 pg/mL. It also gave an IL17A concentration [2] of 4 ± 0.34 pg/mL, an IL18 concentration [2] of 157.36 ± 4.56 pg/mL and an IL21 concentration [2] of 2.45 ± 0.29 pg/mL. For the same compound, the IL22 concentration [2] was 8.24 ± 0.53 pg/mL, the IL23 concentration [2] was 6.95 ± 0.48 pg/mL and the IL27 concentration [2] was 6.59 ± 0.99 pg/mL. It also gave an IL31 concentration [2] of 3.34 ± 0.69 pg/mL, an IP-10/CXCL10 concentration [2] of 3835.78 ± 304.58 pg/mL and an LIF concentration [2] of 70.66 ± 3.22 pg/mL. The MCP1 concentration [2] was 19811.45 ± 4611.45 pg/mL, the MIP1 alpha concentration [2] was 98.72 ± 3.87 pg/mL and the MIP1 beta concentration [2] was 318.74 ± 8.72 pg/mL. For the same compound, the PDGF-BB concentration [2] was 5.52 ± 0.27 pg/mL, the PIGF-1 concentration [2] was 55.71 ± 3.28 pg/mL and the RANTES concentration [2] was 189.62 ± 13.78 pg/mL. The SCF concentration [2] was 4.23 ± 0.15 pg/mL, the SDF-1 alpha concentration [2] was 3436.48 ± 134.91 pg/mL and the TNF alpha concentration [2] was 10619.05 ± 1276.72 pg/mL. The TNF beta concentration [2] was 3.78 ± 0.57 pg/mL, the VEGF-A concentration [2] was 1262.36 ± 57.42 pg/mL and the VEGF-D concentration [2] was 8.82 ± 0.7 pg/mL. The IL1RA concentration [3] was 488.84 ± 49.85 pg/mL, the IL1 alpha concentration [3] was 0.3 ± 0.05 pg/mL and the IL1 beta concentration [3] was 0.93 ± 0.17 pg/mL. The IL2 concentration [3] was 2.65 ± 0.28 pg/mL, the IL4 concentration [3] was 4.89 ± 1.18 pg/mL and the IL5 concentration [3] was 3.04 ± 0.41 pg/mL. The IL6 concentration [3] was 28.49 ± 2.89 pg/mL, the IL7 concentration [3] was 3.35 ± 0.18 pg/mL and the IL8 concentration [3] was 269.53 ± 10.35 pg/mL. For the same compound, the IL9 concentration [3] was 3.65 ± 0.2 pg/mL, the IL10 concentration [3] was 0.4 ± 0.11 pg/mL and the IL12p70 concentration [3] was 1.52 ± 0.29 pg/mL. The IL13 concentration [3] was 1.08 ± 0.13 pg/mL, the IL15 concentration [3] was 1.98 ± 0.49 pg/mL and the IL17A concentration [3] was 1.39 ± 0.22 pg/mL. The IL18 concentration [3] was 5.89 ± 0.58 pg/mL, the IL21 concentration [3] was 2.33 ± 0.29 pg/mL and the IL22 concentration [3] was 7.16 ± 1.16 pg/mL. The IL23 concentration [3] was 6.54 ± 1 pg/mL, the IL27 concentration [3] was 9.17 ± 2.36 pg/mL and the IL31 concentration [3] was 3.28 ± 0.31 pg/mL. The IP-10/CXCL10 concentration [3] was 19.83 ± 0.4 pg/mL, the LIF concentration [3] was 24.24 ± 1.14 pg/mL and the MCP1 concentration [3] was 1158.23 ± 47.13 pg/mL. For the same compound, the MIP1 alpha concentration [3] was 2.9 ± 0.21 pg/mL, the MIP1 beta concentration [3] was 117.97 ± 3.75 pg/mL and the PDGF-BB concentration [3] was 2.19 ± 0.17 pg/mL. It also gave a PIGF-1 concentration [3] of 21.19 ± 1.05 pg/mL, an RANTES concentration [3] of 8.61 ± 0.52 pg/mL and an SCF concentration [3] of 2 ± 0.1 pg/mL. It also gave an SDF-1 alpha concentration [3] of 1028.82 ± 43.21 pg/mL, a TNF alpha concentration [3] of 2.82 ± 0.72 pg/mL and a TNF beta concentration [3] of 4.5 ± 0.5 pg/mL. The VEGF-A concentration [3] was 609.51 ± 15.83 pg/mL and the VEGF-D concentration [3] was 3.63 ± 0.6 pg/mL.
